Patent US6384077B1, “Highly purified EPA for treatment of schizophrenia and related disorders” (Laxdale Limited, priority 1999, dated 2002)

Assays:
[1] = tested on: attention deficit hyperactivity disorder (ADHD); experiment: case report: child with ADHD; assay type: in vivo, human; conditions: two capsules per day, after two weeks
Source text: Attention deficit hyperactivity disorder (ADHD): ADHD and closely related conditions like attention deficit disorder and conduct disorders are commonly found in children. Occasionally they may be successfully treated by behaviour modification and other psychological techniques or by careful attention to diet. However, in most cases, paradoxical treatment with one of the stimulant drugs related in their action to amphetamine is required. Methylphenidate and dextroamphetamine are the commonest used. A child with serious ADHD since infancy was driving their parents to distraction. […] The parents were concerned about the long term consequences of stimulant drugs. The child was therefore tried on two capsules of pure ethyl-EPA per day. […] The child became less tense and irritable, less hyperactive, more open to reasoned discussion and enormously less disruptive both at home and school. Even when their methylphenidate was stopped, their behaviour remained improved.

[2] = tested on: schizophrenic breakdown; conditions: 2 g/day with olanzapine, after about 4 weeks
Source text: (§1) In addition to citalopram they were then given 1 g/day of ethyl-EPA. […] Another case was a young person who dropped out of college with a schizophrenic breakdown.

[3] = tested on: schizophrenia, drug-induced obesity; assay type: in vivo, human; conditions: ethyl-EPA in addition to olanzapine, six months
Source text: Obesity is another common side effect of antipsychotropic drugs. In this respect some of the newer drugs like olanzapine frequently seem to be even worse offenders than the typical neuroleptics. […] They preferred the olanzapine but it still left their withdrawn and unable to communicate normally with friends or family. To their distress it caused them to put on over 10 kg in weight. Their doctor decided to test ethyl-EPA in addition to olanzapine.

[4] = tested on: dementia; experiment: case report: person with dementia; assay type: in vivo, human; conditions: 4x0.5 g capsules per day, within four weeks
Source text: Dementia: A person developed dementia, probably of Alzheimer type but possibly with multi-infarct contributions because of associated cardiovascular disease. As often occurs they also became withdrawn and depressed but, unfortunately, this state was interrupted by irrational and violent outbursts, usually directed at members of their family, but also sometimes against complete strangers. They were tried on two cholinergic drugs: although these produced a small improvement in their cognitive state they did nothing for their depression, irritability and anger. They were tried on a dose of 4×0.5 g capsules of pure ethyl-EPA, two given in the morning and two in the evening. […] Their family also thought their cognition had improved but this is difficult to be certain of because of their improved mood.

[5] = tested on: clozapine-induced hypersalivation; experiment: three clozapine-treated patients with hypersalivation; assay type: in vivo, human
Source text: Clozapine is regarded as a particularly effective drug by many psychiatrists but it has a range of severe side effects. From the patient's point of view one of the most troublesome is hypersalivation. This may not sound very serious but the constant flow of large volumes of saliva is in fact very distressing for the patient and for those who are associated with the patient. The mechanism of the hypersalivation is unknown.

[6] = tested on: Huntington's disease; experiment: randomised double blind trial of 96% pure ethyl-EPA in Huntington's disease; assay type: in vivo, human; conditions: 2 g/day, 6 months
Protocol: Because early Huntington's disease may present with schizophrenia-like features, a randomised trial of 96% pure ethyl-EPA was set up in seven severely disabled patients in the final stages of Huntington's disease. All required 24 hour nursing care, had severe movement disorders, were irritable and were partially demented. They were randomised on a double blind basis to receive 2 g/day ethyl-EPA or 2 g/day placebo for 6 months. […] In four of the patients, two on ethyl-EPA and two on placebo, the brain degeneration was assessed at the beginning and end of the study by magnetic resonance imaging (MRI). MRI allows an accurate assessment of the size of the lateral ventricles, the fluid-filled spaces within the cerebral hemispheres. As Huntington's disease progresses, the lateral ventricles enlarge indicating loss of brain tissue. In the two patients on placebo over 6 months the ventricles enlarged as expected.

[7] = tested on: schizophrenia; experiment: case history: schizophrenia, ethyl-EPA added to haloperidol; assay type: in vivo, human; conditions: 4 g/day in addition to haloperidol, eight weeks
Source text: A person had become ill with schizophrenia. They had florid hallucinations and paranoia, but also withdrew themself from most of their friendships and lived alone. […] They lived alone, ceased to communicate with most of their friends, and went around to town alone and muttering to […]. Their psychiatrist heard about ethyl-EPA and decided to try it in addition to the standard drug. After eight weeks on treatment with 4 g/day their outlook was transformed. […] They were even persuaded to go on holiday with their family where they enjoyed themself and made new friends. The EPA therefore reversed the extreme withdrawal which appeared to have been exaggerated by haloperidol.

[8] = tested on: schizophrenia; experiment: case report: schizophrenia, fish oil switched to ethyl-EPA; assay type: in vivo, human
Source text: This provided around 1.9 g/day of EPA and 0.6 g/day of DHA. They were not taking other antipsychotic drugs. […] However, when they did this the symptoms returned and it was concluded that they had to take around 2 g/day of EPA to remain well. When the purified ethyl-EPA became available, they were switched to 4×0.5 g capsules, also providing around 2 g/day. […] They therefore dropped the dose to 1 g/day.

[9] = tested on: depression; experiment: case report: depressed person, Hamilton Depression Rating Scale; assay type: in vivo, human; conditions: 1 g/day 96% ethyl-EPA, after about 3-4 weeks
Source text: Our attention was unexpectedly drawn to the importance of highly purified EPA by our experience with a patient, a depressed women aged 35 years. […] […] […] They continued the EPA-rich oil for a further two months without any further change. […] As a result of this, and of thinking about the evidence relating to the binding of EPA to FACL-4 and presumably to other proteins, we came to the conclusion that it was important for clinical efficacy to administer EPA in a highly purified form for maximum clinical effectiveness.

[10] = tested on: severe depression; experiment: case history: severe depression, ethyl-EPA added to citalopram; assay type: in vivo, human; conditions: 1 g/day in addition to citalopram, after four weeks
Source text: as §1

[11] = tested on: schizophrenia; experiment: case history: schizophrenia, E-EPA added to clozapine; assay type: in vivo, human; conditions: 2 g/day in addition to clozapine 900 mg/day
Source text: This mechanism is thought to be responsible for their rapid effects on the so-called “positive” symptoms of schizophrenia (such as hallucinations, delusions and thought disorder). […] The D2 blocking action is also responsible for many of the adverse effects of these drugs, which include extrapyramidal movement disorders, excess prolactin secretion, and tardive dyskinesias. Examples of widely used drugs in this class include chlorpromazine, thioridazine, haloperidol, pimozide, flupenthixol and sulpiride.
These may include blockade of one or more of the other dopamine receptors such as D1, D3 or D4, and also usually including blockade of one or more classes of serotonin receptors. […] They may also have actions at other receptors, including histamine, glutamate and acetyl choline receptors.
The patient was treated with clozapine, eventually reaching a maximum dose of 900 mg/day.
E-EPA in a dose of 2 g/day was then administered in addition to clozapine.

**Q.** CC/C=C\C/C=C\C/C=C\C/C=C\C/C=C\CCCC(=O)OCC [ethyl-EPA] was tested. Which “behaviour in ADHD” value [1] did it give?
**A.** The value was “substantial improvement in behaviour”.

**Q.** And the clarity of thinking [2]?
**A.** The clarity of thinking was “thinking more clearly”.

**Q.** What about the withdrawn state [3] of the same compound?
**A.** The withdrawn state was “gradually improved”.

**Q.** What about the “mood and irritability in dementia” value [4] of the same compound?
**A.** The value was “remarkable improvement”.

**Q.** What about the psychiatric state [5] of the same compound?
**A.** Its psychiatric state is “substantial improvement in psychiatric state”.

**Q.** What about the salivation [5] of the same compound?
**A.** The salivation was “dramatically reduced the salivation to normal levels”.

**Q.** And the “clinical course of Huntington's disease” value ([6]; three patients)?
**A.** The value was “improved”.

**Q.** And the “lateral ventricle size by MRI” value ([6]; two patients)?
**A.** The value was “reduction in lateral ventricle size”.

**Q.** And the residual hallucinations [7]?
**A.** Its residual hallucinations is “residual hallucinations disappeared”.

**Q.** And the “recurrence of symptoms after dose reduction” value ([8]; 1 g/day)?
**A.** The value was “did not lead to a recurrence of symptoms”.

**Q.** What about the “control of schizophrenia symptoms” value ([8]; 4x0.5 g capsules, around 2 g/day) of the same compound?
**A.** The value was “controlled their symptoms very well”.

**Q.** And the Hamilton scores [9]?
**A.** The Hamilton scores was “below 6”.

**Q.** And the effect on mood [10]?
**A.** The effect on mood was “lightening of mood”.

**Q.** What about the clozapine-induced hypersalivation [11] of the same compound?
**A.** Its clozapine-induced hypersalivation is “considerably reduced”.

**Q.** What about the “effect on schizophrenic illness” value [11] of the same compound?
**A.** Its value is “dramatic within two weeks”.
